Reference: US8778643B2, “Methods for increasing lipid levels and producing triacylglycerols in algae” (priority 2012, dated 2014)
Read-outs that look alike come from different tables or passages of the source.

Tests used:
[1] = biological target: CDC25 phosphatase 25A (Homo sapiens, UniProt P30304); conditions: cited from earlier work
[2] = biological target: CDC25 phosphatase 25C (Homo sapiens, UniProt P30307); conditions: cited from earlier work
[3] = biological target: T1, CDC25 phosphatase 25C-cat (Homo sapiens, UniProt P30307); conditions: cited from earlier work
T1 construct: 25C-cat
T1 sequence (P30307 321-428 limits assumed): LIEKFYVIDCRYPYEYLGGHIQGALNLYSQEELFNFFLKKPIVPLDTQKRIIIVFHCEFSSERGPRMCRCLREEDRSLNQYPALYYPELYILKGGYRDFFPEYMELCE

[4] = tested on: Phaeodactylum tricornutum; experiment: Microplate assay: growth (absorbance 680 nm) and intracellular lipids (Nile Red fluorescence); type: cell-based
[5] = tested on: Nannochloris sp.; experiment: as above; type: cell-based; conditions: for Absorbance (percent increase) / Nile Red percent increase: 200 nM, initial microplate screen, relative to control; for Nile Red Fluorescence % Increase: Nannochloris sp., initial screening, p<0.05
[6] = tested on: Nannochloropsis salina
[7] = tested on: antioxidant response element; conditions: cited from earlier work
[8] = tested on: Nannochloropsis sp.; experiment: Microplate assay: increase of lipid production (Table 17); type: cell-based; conditions: best conc. 2.4 nM
Text: We also tested a collection with more antioxidants, kinase inhibitors, and further compounds for increase of lipid production with N. salina, P. tricornutum, N. oculata, and Nannochloropsis sp.

[9] = biological target: arachidonate 15-LO (Homo sapiens, UniProt P16050); conditions: cited from earlier work
Chain of arachidonate 15-LO (P16050 whole entry): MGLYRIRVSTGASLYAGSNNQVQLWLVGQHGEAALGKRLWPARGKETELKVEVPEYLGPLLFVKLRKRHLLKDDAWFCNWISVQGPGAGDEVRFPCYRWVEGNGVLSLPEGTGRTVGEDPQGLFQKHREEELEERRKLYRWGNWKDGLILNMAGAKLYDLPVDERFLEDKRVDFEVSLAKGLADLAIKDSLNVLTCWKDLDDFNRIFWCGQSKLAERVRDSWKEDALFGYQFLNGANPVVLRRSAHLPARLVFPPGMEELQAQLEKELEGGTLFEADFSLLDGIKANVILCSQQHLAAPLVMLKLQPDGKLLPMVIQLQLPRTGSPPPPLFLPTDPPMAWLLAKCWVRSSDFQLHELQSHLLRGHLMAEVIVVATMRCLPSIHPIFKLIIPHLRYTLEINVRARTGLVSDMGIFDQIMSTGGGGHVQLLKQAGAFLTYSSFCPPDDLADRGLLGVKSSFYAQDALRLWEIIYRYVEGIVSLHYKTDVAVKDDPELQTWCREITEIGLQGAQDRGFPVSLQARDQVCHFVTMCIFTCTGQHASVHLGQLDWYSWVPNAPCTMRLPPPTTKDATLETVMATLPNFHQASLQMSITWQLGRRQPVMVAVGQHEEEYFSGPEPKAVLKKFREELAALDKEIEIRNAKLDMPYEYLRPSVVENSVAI

[10] = biological target: CDK6 (Homo sapiens, UniProt Q00534); conditions: cited from earlier work
Chain of CDK6 (Q00534 whole entry, looked up): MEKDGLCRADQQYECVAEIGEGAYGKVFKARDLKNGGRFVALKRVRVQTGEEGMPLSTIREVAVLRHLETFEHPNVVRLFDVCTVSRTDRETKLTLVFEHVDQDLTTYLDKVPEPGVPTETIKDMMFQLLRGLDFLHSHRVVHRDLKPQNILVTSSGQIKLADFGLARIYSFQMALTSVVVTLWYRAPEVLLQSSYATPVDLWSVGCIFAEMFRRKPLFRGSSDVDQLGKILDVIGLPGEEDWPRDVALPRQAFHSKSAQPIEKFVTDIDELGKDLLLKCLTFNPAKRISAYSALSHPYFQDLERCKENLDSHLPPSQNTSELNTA

[11] = tested on: Nannochloropsis oculata; conditions: 55.2-165.6 nM
Method: Stock cultures were aerated by stirring with bubbling air (homemade manifold with Petco air pump, 2-4% CO2) or by orbital shaking (Thermo Scientific MAXQ 2000) at a constant speed of 150 rpm at 22±3° C. with a 16:8 hour light/dark cycle. Stocks were kept at stationary phase for use. Algae were prepared as dictated by culture center.
Compounds were selected based on reported biological activity in non-microalgae organisms. To ensure that compounds retained their quality, they were stored under advised conditions after purchasing from the manufacturer. Solutions of all assay compounds were prepared as 10 mM stock solutions by dissolving in DMSO in 2-dram amber vials and then stored in darkness −20° C. 96-well PCR plates were used to create a stock plate layout that was then transferred to the algae microplates. A plate map was used to distribute each compound to a well based on molecule name, collection number, and CAS number. For 20 μM and 200 nM assay plates, 10 mM compound stock in DMSO was diluted into plate maps of 5 mM and 50 μM assay stocks, respectively.
All materials for assay experiments were autoclaved before each use to maintain axenic algae cultures. Algae species were checked for homogeneity using a TS-100 light microscope (Nikon, Japan). […] Diluted stock solutions were made immediately prior to use for consistency and optimal plate growth. Cell density was measured on a Thermo Scientific Genesys 10S Vis Spectrophotometer (ThermoFisher, San Jose), using a 1 mL cuvette at 680 nm.
Plates were originally run in triplicate, before replicates were increased to quadruplicate, along with a separate control plate to compare growth. Due to extensive evaporation in exterior wells over time, our unique algae plate layout was designed to use the 60 interior wells out of 96 wells for the experiment. The 36 outer wells were filled with Millipore water and media to prevent evaporation and edge effects in the inner algae wells, as well as serve as blanks. The 60 wells with algae contained a total volume of 251 μL (100 μL of media+DMSO compound stock +150 μL dilute algae stock). For 20 μM and 200 nM assay plates, 10 mM compound stock in DMSO is diluted into plate maps of 5 mM and 50 μM assay stocks, respectively. […] Plates were parafilmed during growth to limit the amount of evaporation that can occur. Plates were numbered, and numerically ordered to ensure they got the same shaker space.
The shakers are kept at a constant shaking of 150 rpm. Ambient temperature is 22±3° C.

[12] = biological target: protein phosphatase 2A (Homo sapiens, UniProt P67775); conditions: cited from earlier work
Chain of protein phosphatase 2A (P67775 whole entry): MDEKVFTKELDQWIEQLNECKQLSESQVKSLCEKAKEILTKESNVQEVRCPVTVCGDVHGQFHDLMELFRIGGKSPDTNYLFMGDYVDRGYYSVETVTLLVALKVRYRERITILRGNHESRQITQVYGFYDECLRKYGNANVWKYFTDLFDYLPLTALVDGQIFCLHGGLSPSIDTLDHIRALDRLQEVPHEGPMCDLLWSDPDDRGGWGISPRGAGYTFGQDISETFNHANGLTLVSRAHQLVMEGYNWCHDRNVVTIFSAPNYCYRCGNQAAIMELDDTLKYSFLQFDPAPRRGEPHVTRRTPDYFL

[13] = 200 nM, initial microplate screen, relative to control

Chain of CDC25 phosphatase 25A (P30304 whole entry): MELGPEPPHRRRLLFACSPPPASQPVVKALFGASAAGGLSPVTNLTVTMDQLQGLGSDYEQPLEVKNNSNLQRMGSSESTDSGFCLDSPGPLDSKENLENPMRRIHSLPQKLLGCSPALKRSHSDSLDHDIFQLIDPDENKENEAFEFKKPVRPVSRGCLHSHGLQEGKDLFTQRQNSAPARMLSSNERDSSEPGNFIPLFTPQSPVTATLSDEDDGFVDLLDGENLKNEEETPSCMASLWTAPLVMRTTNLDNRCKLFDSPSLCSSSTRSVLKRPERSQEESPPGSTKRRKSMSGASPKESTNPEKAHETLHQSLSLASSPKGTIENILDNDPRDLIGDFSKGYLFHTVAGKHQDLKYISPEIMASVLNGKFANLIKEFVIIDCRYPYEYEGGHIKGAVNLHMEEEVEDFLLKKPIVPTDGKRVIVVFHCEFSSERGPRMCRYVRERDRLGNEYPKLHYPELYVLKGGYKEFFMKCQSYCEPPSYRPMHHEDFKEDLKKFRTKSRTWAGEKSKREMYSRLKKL
Chain of CDC25 phosphatase 25C (P30307 whole entry): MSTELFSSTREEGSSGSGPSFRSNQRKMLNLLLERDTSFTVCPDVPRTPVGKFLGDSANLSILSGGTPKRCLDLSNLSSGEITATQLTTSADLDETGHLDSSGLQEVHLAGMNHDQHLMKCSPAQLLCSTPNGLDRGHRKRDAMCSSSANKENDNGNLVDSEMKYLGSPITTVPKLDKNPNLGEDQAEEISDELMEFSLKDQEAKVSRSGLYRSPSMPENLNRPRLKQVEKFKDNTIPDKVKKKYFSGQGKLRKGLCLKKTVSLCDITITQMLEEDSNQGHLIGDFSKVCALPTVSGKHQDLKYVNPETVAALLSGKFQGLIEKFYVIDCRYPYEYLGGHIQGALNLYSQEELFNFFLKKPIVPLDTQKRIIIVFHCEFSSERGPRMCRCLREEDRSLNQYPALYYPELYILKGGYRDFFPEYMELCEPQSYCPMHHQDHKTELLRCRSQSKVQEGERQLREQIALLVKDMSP

## 6-Chloro-7-(2-morpholin-4-yl-ethylamino)-quinoline-5,8-dione [CDC25 Phosphatase Inhibitor I]
[1]
  IC50: 2400 nM
[2]
  IC50: 5.4 µM
[3]
  IC50: 4.6 µM

## CC1=CC(=O)CC(C)(C)[C@@]1(O)/C=C/C(C)=C\C(=O)O [Abscisic acid, (2Z,4E)-5-[(1S)-1-hydroxy-2,6,6-trimethyl-4-oxocyclohex-2-en-1-yl]-3-methylpenta-2,4-dienoic acid]
[4]; [13]
  Absorbance (percent increase): −1.2%
  Nile Red percent increase: 87.0%
[4]; P. tricornutum, compounds tested at 200 nM, initial screening, p<0.05
  Nile Red Fluorescence % Increase: 87.0%
[5]
  Absorbance (percent increase): −2.6%
  Nile Red percent increase: 61.6%
[5]; compounds tested at 200 nM
  Nile Red Fluorescence % Increase: 90.8%
[6]; N. salina, compounds tested at 20 μM, initial screening, p<0.05
  Nile Red Fluorescence % Increase: 34.5%
[7]
  agonist of antioxidant response element at: element at 37.6 μM)

## CC(=O)Nc1ccc(O)cc1 [Acetaminophen, N-(4-hydroxyphenyl)ethanamide]
[5]
  Absorbance (percent increase): −6.7%
  Nile Red percent increase: 68.9%
[5]; compounds tested at 20 μM
  Nile Red Fluorescence % Increase: 89.7%
[8]
  % Inc: 13.11%
[9]
  IC50: 28.4 µM

## CCNc1cc(N[C@H]2CC[C@H](O)CC2)nc(Nc2ccc3c(ccn3Cc3ccccc3)c2)n1 [CDK4/6 Inhibitor 4, trans-4-((6-(ethylamino)-2-((1-(phenylmethyl)-1H-indol-5-yl)amino)-4-pyrimidinyl)amino)-cyclohexanol]
[4]; P. tricornutum, 10 μM, DMSO delivery, added t=day 0
  % Increase based on Nile Red Fluorescence Intensity: 50%
[10]
  IC50: 5.6 µM

## CC12C(=O)OC(=O)C1(C)C1CCC2O1 (stereo not drawn) [Cantharidin, 2,6-Dimethyl-4,10-dioxatricyclo-[5.2.1.0^2,6]decane-3,5-dione]
[4]; 0.0252-0.0757 nM
  % increase (lipid production): 9-35%
[4]; 0.0252-165.6 nM (H2O)
  % increase (lipid production): 0.17-168.19%
[5]
  Absorbance (percent increase): −6.5%
  Nile Red percent increase: 64.5%
[5]; compounds tested at 20 μM
  Nile Red Fluorescence % Increase: 22.9%
[6]; 0.0252-0.681 nM
  % increase (lipid production): 1-15%
[6]; 0.0252-165 nM (H2O)
  % increase (lipid production): 7-87%
[11]
  % increase (lipid production): 11-54%
[12]
  IC50: 40 nM
